Data: paper PMC7697191, “Identification of Novel Influenza Polymerase PB2 Inhibitors Using a Cascade Docking Virtual Screening Approach” (Molecules, 2020)

Key:
H1N1 PB2 CBD = H1N1 PB2 CBD (Influenza A virus, UniProt P03427); assay: SPR binding assay on immobilized H1N1 PB2 CBD; parameters: species or system influenza A/WSN/1933 (H1N1); details: Biacore T200, CM5 chip, affinity binding model
in vitro = details: dog
[1] = test system: A/Hong Kong/8/68 (HK/68, H3N2); format: cell-based; details: MDCK cells, CPE inhibition

Chain of H1N1 PB2 CBD (P03427 318-486 limits assumed): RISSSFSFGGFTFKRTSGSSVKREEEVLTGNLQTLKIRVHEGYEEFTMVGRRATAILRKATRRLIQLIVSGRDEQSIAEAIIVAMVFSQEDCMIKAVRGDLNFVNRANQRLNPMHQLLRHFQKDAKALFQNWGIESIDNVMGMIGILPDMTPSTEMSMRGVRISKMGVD

| Compound | Kd (H1N1 PB2 CBD) | CC50 at 72 h (in vitro) | activity against the A/Hong Kong/8/68 (HK/68, H3N2) strain, in words [1] |
| --- | --- | --- | --- |
| Cc1c(-c2ccccc2F)[nH]c2ccc(CNC(=O)CCc3cc(O)no3)cc12 [11C5] | 2.26 µM | > 100 µM | – |
| Cc1cc(CN2CCOc3c(O)cc(-c4ccccc4Cl)cc3C2)on1 [11C6] | 1.7 µM | > 100 µM | – |
| O=C(NCc1nc(C2CCCCC2)no1)c1cc(-c2ccccc2F)n[nH]1 [11C8] | 6.16 µM | > 100 µM | – |
| c1csc(CNc2nc3nonc3nc2NCCCN2CCOCC2)c1 [11D2] | 0.21 µM | > 100 µM | – |
| C=CCn1cc(CNCc2noc(-c3ccc4c(c3)OCO4)n2)c(C)n1 [11D4] | 1.87 µM | > 100 µM | – |
| c1cc(Cn2ccnc2-c2nc3c(s2)CCCC3)cc(-c2nnn[nH]2)c1 [12B1] | 6.77 µM | > 100 µM | – |
| C=CCn1cc(-c2cc(-c3ccc(C(=O)O)cc3)[nH]c(=N)c2C#N)cn1 [12C5] | 2.44 µM | > 100 µM | – |
| NS(=O)(=O)CCCC(=O)NCc1ccc2[nH]c3c(c2c1)CCCCCC3 [13D7] | 1.13 µM | > 100 µM | – |
| CCSc1ncc(-c2cc(-c3c(C)nn(C)c3C)nc(N)c2C#N)cn1 [21A5] | 0.54 µM | > 100 µM | – |
| Cc1cccnc1CCNc1nc2nonc2nc1NCc1cccs1 [21B1] | 1.95 µM | > 100 µM | no activity |
| CCC(CC)O[C@@H]1C=C(C(=O)O)C[C@H](N)[C@H]1NC(C)=O [OC, Oseltamivir carboxylate, reference compound] | – | > 100 µM | – |
| O=C(O)[C@H]1C2CCC(CC2)[C@@H]1Nc1nc(-c2c[nH]c3ncc(F)cc23)ncc1F [VX-787, reference compound] | 0.054 µM | > 100 µM | – |
